Measured values taken from ChEMBL document CHEMBL5120839, “Design, synthesis and antibacterial activity of novel pleuromutilin derivatives with thieno[2,3-d]pyrimidine substitution” (Eur J Med Chem, 2022).
≈ marks a conversion by molar mass, not a printed value.

Columns and labels:
Assay type in all cases: functional
Staphylococcus aureus [1] = assay: Antibacterial activity against Staphylococcus aureus assessed as diameter of the inhibition circle at 1 mg/ml incubated for 48 hrs
Staphylococcus aureus [2] = assay: Antibacterial activity against Staphylococcus aureus assessed as inhibition of bacterial growth incubated for 24 hrs by microbroth two-fold dilution method
Streptococcus agalactiae = assay: Antibacterial activity against Streptococcus agalactiae assessed as inhibition of bacterial growth incubated for 24 hrs by microbroth two-fold dilution method
Escherichia coli = assay: Antibacterial activity against Escherichia coli assessed as inhibition of bacterial growth incubated for 24 hrs by microbroth two-fold dilution method

**Q.** `C=C[C@]1(C)C[C@@H](OC(=O)CSc2nc(N3CCN(CC)CC3)c3ccccc3n2)[C@]2(C)[C@H](C)CC[C@]3(CCC(=O)[C@H]32)[C@@H](C)[C@@H]1O` was tested. Which inhibition zone diameter (Staphylococcus aureus [1]) did it give?
**A.** Its inhibition zone diameter is 22.1 mm.

**Q.** What about the MIC (Staphylococcus aureus [2]) of the same compound?
**A.** Its MIC is 0.488 µg/mL (≈ 0.769 µM).

**Q.** And the MIC (Streptococcus agalactiae)?
**A.** Its MIC is 0.244 µg/mL (≈ 0.384 µM).

**Q.** And the MIC (Escherichia coli)?
**A.** The MIC was 3.91 µg/mL (≈ 6.15 µM).

**Q.** Which results are given for `C=C[C@]1(C)C[C@@H](OC(=O)CSc2nc(N3CCSCC3)c3ccsc3n2)[C@]2(C)[C@H](C)CC[C@]3(CCC(=O)[C@H]32)[C@@H](C)[C@@H]1O`?
**A.** inhibition zone diameter (Staphylococcus aureus [1]): 14 mm; MIC (Staphylococcus aureus [2]): 7.81 µg/mL (≈ 12.4 µM); MIC (Streptococcus agalactiae): 1.95 µg/mL (≈ 3.1 µM); MIC (Escherichia coli): > 15.6 µg/mL

**Q.** With `C=C[C@]1(C)C[C@@H](OC(=O)CSc2nc(N/N=C/c3ccccc3[N+](=O)[O-])c3ccsc3n2)[C@]2(C)[C@H](C)CC[C@]3(CCC(=O)[C@H]32)[C@@H](C)[C@@H]1O` as the compound, how does the inhibition zone diameter (Staphylococcus aureus [1]) read?
**A.** Its inhibition zone diameter is 21.5 mm.

**Q.** And the MIC (Staphylococcus aureus [2])?
**A.** The MIC was 7.81 µg/mL (≈ 11.3 µM).

**Q.** What about the MIC (Streptococcus agalactiae) of the same compound?
**A.** The MIC was 0.0153 µg/mL (≈ 0.0221 µM).

**Q.** What about the MIC (Escherichia coli) of the same compound?
**A.** The MIC was 7.81 µg/mL (≈ 11.3 µM).

**Q.** Which results are given for `C=C[C@]1(C)C[C@@H](OC(=O)CSc2nc(C)cc(NCCO)n2)[C@]2(C)[C@H](C)CC[C@]3(CCC(=O)[C@H]32)[C@@H](C)[C@@H]1O`?
**A.** inhibition zone diameter (Staphylococcus aureus [1]): 22.8 mm; MIC (Staphylococcus aureus [2]): 0.244 µg/mL (≈ 0.447 µM); MIC (Streptococcus agalactiae): 0.244 µg/mL (≈ 0.447 µM); MIC (Escherichia coli): 7.81 µg/mL (≈ 14.3 µM)

**Q.** For `C=C[C@]1(C)C[C@@H](OC(=O)CSc2nc(N/N=C/c3ccccc3OC)c3ccsc3n2)[C@]2(C)[C@H](C)CC[C@]3(CCC(=O)[C@H]32)[C@@H](C)[C@@H]1O`, which inhibition zone diameter (Staphylococcus aureus [1]) is on record?
**A.** Its inhibition zone diameter is 21.1 mm.

**Q.** What about the MIC (Staphylococcus aureus [2]) of the same compound?
**A.** The MIC was 0.977 µg/mL (≈ 1.44 µM).

**Q.** And the MIC (Streptococcus agalactiae)?
**A.** Its MIC is 0.244 µg/mL (≈ 0.361 µM).

**Q.** And the MIC (Escherichia coli)?
**A.** The MIC was greater than 15.6 µg/mL.

**Q.** How did the inhibition zone diameter (Staphylococcus aureus [1]) turn out when `C=C[C@]1(C)C[C@@H](OC(=O)CSc2nc(N/N=C/c3ccc(C(F)(F)F)cc3)c3ccsc3n2)[C@]2(C)[C@H](C)CC[C@]3(CCC(=O)[C@H]32)[C@@H](C)[C@@H]1O` was run?
**A.** Its inhibition zone diameter is 22.2 mm.

**Q.** What about the MIC (Staphylococcus aureus [2]) of the same compound?
**A.** Its MIC is 7.81 µg/mL (≈ 10.9 µM).

**Q.** What about the MIC (Streptococcus agalactiae) of the same compound?
**A.** The MIC was 0.244 µg/mL (≈ 0.341 µM).

**Q.** What about the MIC (Escherichia coli) of the same compound?
**A.** Its MIC is greater than 15.6 µg/mL.

**Q.** Which results are given for `C=C[C@]1(C)C[C@@H](OC(=O)CSc2nc(N3CCCC3)c3ccsc3n2)[C@]2(C)[C@H](C)CC[C@]3(CCC(=O)[C@H]32)[C@@H](C)[C@@H]1O`?
**A.** inhibition zone diameter (Staphylococcus aureus [1]): 17.8 mm; MIC (Staphylococcus aureus [2]): 3.91 µg/mL (≈ 6.53 µM); MIC (Streptococcus agalactiae): 0.061 µg/mL (≈ 0.102 µM); MIC (Escherichia coli): > 15.6 µg/mL

**Q.** How did the inhibition zone diameter (Staphylococcus aureus [1]) turn out when `C=C[C@]1(C)C[C@@H](OC(=O)CSc2ncc(C)c(N3CCN(CC)CC3)n2)[C@]2(C)[C@H](C)CC[C@]3(CCC(=O)[C@H]32)[C@@H](C)[C@@H]1O` was run?
**A.** The inhibition zone diameter was 26.6 mm.

**Q.** And the MIC (Staphylococcus aureus [2])?
**A.** The MIC was 0.244 µg/mL (≈ 0.408 µM).

**Q.** What about the MIC (Streptococcus agalactiae) of the same compound?
**A.** The MIC was 0.244 µg/mL (≈ 0.408 µM).

**Q.** What about the MIC (Escherichia coli) of the same compound?
**A.** The MIC was 3.91 µg/mL (≈ 6.52 µM).

**Q.** Which results are given for `C=C[C@]1(C)C[C@@H](OC(=O)CSc2nc(N3CCN(C)CC3)c3ccsc3n2)[C@]2(C)[C@H](C)CC[C@]3(CCC(=O)[C@H]32)[C@@H](C)[C@@H]1O`?
**A.** inhibition zone diameter (Staphylococcus aureus [1]): 26.1 mm; MIC (Staphylococcus aureus [2]): 0.122 µg/mL (≈ 0.195 µM); MIC (Streptococcus agalactiae): 0.244 µg/mL (≈ 0.389 µM); MIC (Escherichia coli): 7.81 µg/mL (≈ 12.5 µM)

**Q.** Which results are given for `C=C[C@]1(C)C[C@@H](OC(=O)CSc2nc(N/N=C/c3cccs3)c3ccsc3n2)[C@]2(C)[C@H](C)CC[C@]3(CCC(=O)[C@H]32)[C@@H](C)[C@@H]1O`?
**A.** inhibition zone diameter (Staphylococcus aureus [1]): 22.8 mm; MIC (Staphylococcus aureus [2]): 0.977 µg/mL (≈ 1.5 µM); MIC (Streptococcus agalactiae): 0.488 µg/mL (≈ 0.748 µM); MIC (Escherichia coli): 7.81 µg/mL (≈ 12 µM)

**Q.** Which inhibition zone diameter (Staphylococcus aureus [1]) does the source give for `C=C[C@]1(C)C[C@@H](OC(=O)CSc2nc(N3CCCNCC3)c3ccsc3n2)[C@]2(C)[C@H](C)CC[C@]3(CCC(=O)[C@H]32)[C@@H](C)[C@@H]1O` here?
**A.** The inhibition zone diameter was 26.2 mm.

**Q.** What about the MIC (Staphylococcus aureus [2]) of the same compound?
**A.** Its MIC is 0.122 µg/mL (≈ 0.195 µM).

**Q.** And the MIC (Streptococcus agalactiae)?
**A.** Its MIC is 0.061 µg/mL (≈ 0.0973 µM).

**Q.** What about the MIC (Escherichia coli) of the same compound?
**A.** Its MIC is 0.976 µg/mL (≈ 1.56 µM).

**Q.** Which inhibition zone diameter (Staphylococcus aureus [1]) does the source give for `C=C[C@]1(C)C[C@@H](OC(=O)CSc2nc(NCCO)c3c(C)csc3n2)[C@]2(C)[C@H](C)CC[C@]3(CCC(=O)[C@H]32)[C@@H](C)[C@@H]1O` here?
**A.** Its inhibition zone diameter is 25.9 mm.

**Q.** What about the MIC (Staphylococcus aureus [2]) of the same compound?
**A.** The MIC was 0.122 µg/mL (≈ 0.203 µM).

**Q.** What about the MIC (Streptococcus agalactiae) of the same compound?
**A.** The MIC was 0.488 µg/mL (≈ 0.811 µM).

**Q.** What about the MIC (Escherichia coli) of the same compound?
**A.** Its MIC is 0.977 µg/mL (≈ 1.62 µM).

**Q.** What does the source list for `C=C[C@]1(C)C[C@@H](OC(=O)CSc2nc(N3CCC(N(C)C)CC3)c3ccsc3n2)[C@]2(C)[C@H](C)CC[C@]3(CCC(=O)[C@H]32)[C@@H](C)[C@@H]1O`?
**A.** inhibition zone diameter (Staphylococcus aureus [1]): 27.2 mm; MIC (Staphylococcus aureus [2]): 0.244 µg/mL (≈ 0.373 µM); MIC (Streptococcus agalactiae): 0.122 µg/mL (≈ 0.186 µM); MIC (Escherichia coli): 3.91 µg/mL (≈ 5.96 µM)

**Q.** How did the inhibition zone diameter (Staphylococcus aureus [1]) turn out when `C=C[C@]1(C)C[C@@H](OC(=O)CSc2nc(C)cc(N3CCN(CC)CC3)n2)[C@]2(C)[C@H](C)CC[C@]3(CCC(=O)[C@H]32)[C@@H](C)[C@@H]1O` was run?
**A.** Its inhibition zone diameter is 23.9 mm.

**Q.** And the MIC (Staphylococcus aureus [2])?
**A.** Its MIC is 0.244 µg/mL (≈ 0.408 µM).

**Q.** And the MIC (Streptococcus agalactiae)?
**A.** Its MIC is 0.122 µg/mL (≈ 0.204 µM).

**Q.** What about the MIC (Escherichia coli) of the same compound?
**A.** Its MIC is 3.91 µg/mL (≈ 6.52 µM).

**Q.** With `C=C[C@]1(C)C[C@@H](OC(=O)CSc2nc(N/N=C/c3ccc(O)c(Br)c3)c3ccsc3n2)[C@]2(C)[C@H](C)CC[C@]3(CCC(=O)[C@H]32)[C@@H](C)[C@@H]1O` as the compound, how does the inhibition zone diameter (Staphylococcus aureus [1]) read?
**A.** The inhibition zone diameter was 21 mm.

**Q.** And the MIC (Staphylococcus aureus [2])?
**A.** Its MIC is 3.91 µg/mL (≈ 5.27 µM).

**Q.** What about the MIC (Streptococcus agalactiae) of the same compound?
**A.** The MIC was 1.95 µg/mL (≈ 2.63 µM).

**Q.** What about the MIC (Escherichia coli) of the same compound?
**A.** Its MIC is greater than 15.6 µg/mL.

**Q.** What does the source list for `C=C[C@]1(C)C[C@@H](OC(=O)CSc2nc(N/N=C/c3ccccc3Br)c3ccsc3n2)[C@]2(C)[C@H](C)CC[C@]3(CCC(=O)[C@H]32)[C@@H](C)[C@@H]1O`?
**A.** inhibition zone diameter (Staphylococcus aureus [1]): 22.8 mm; MIC (Staphylococcus aureus [2]): 15.6 µg/mL (≈ 21.5 µM); MIC (Streptococcus agalactiae): 0.977 µg/mL (≈ 1.35 µM); MIC (Escherichia coli): > 15.6 µg/mL
